Test results: article PMC3145970, “Specific CLK Inhibitors from a Novel Chemotype for Regulation of Alternative Splicing” (Chemistry & Biology, 2011)
Where two headings read alike, the source gives them in different places.

Experiments:
Assay in all cases: Thermal stability shift assay
Assay type in all cases: binding
[1] = biological target: AKT3 (Homo sapiens, UniProt Q9Y243); conditions: read-out: Tm shift AKT3
Procedure, shortened: (§1)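 Protein at 2 μM was heated with 10 μM inhibitor in 10 mM HEPES pH 7.5, 500 mM NaCl containing SyproOrange (1:1000 dilution); thermal denaturation was followed by fluorescence in a real-time PCR instrument.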

[2] = biological target: T1, DAPK3 (Homo sapiens, UniProt O43293); conditions: read-out: Tm shift DAPK3
T1 construct: purchased in-house (SGC Oxford thermal shift panel)
T1 sequence (O43293 whole entry): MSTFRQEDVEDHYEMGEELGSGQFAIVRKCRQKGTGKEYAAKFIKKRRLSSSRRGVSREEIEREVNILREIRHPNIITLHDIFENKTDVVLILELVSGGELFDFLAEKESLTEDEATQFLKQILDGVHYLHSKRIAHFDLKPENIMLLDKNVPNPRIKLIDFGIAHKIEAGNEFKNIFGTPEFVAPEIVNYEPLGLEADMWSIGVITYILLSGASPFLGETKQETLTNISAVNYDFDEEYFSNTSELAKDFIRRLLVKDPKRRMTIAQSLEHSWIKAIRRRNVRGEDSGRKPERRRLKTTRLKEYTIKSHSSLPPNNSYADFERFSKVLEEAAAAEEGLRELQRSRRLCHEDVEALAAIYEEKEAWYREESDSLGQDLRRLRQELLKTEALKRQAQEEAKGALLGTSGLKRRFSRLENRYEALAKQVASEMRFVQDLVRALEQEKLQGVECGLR
Procedure, shortened: as §1

[3] = biological target: T2, DRAK1 (Homo sapiens, UniProt Q9UEE5); conditions: read-out: Tm shift DRAK1
T2 construct: purchased in-house (SGC Oxford thermal shift panel)
T2 sequence (Q9UEE5 1-414): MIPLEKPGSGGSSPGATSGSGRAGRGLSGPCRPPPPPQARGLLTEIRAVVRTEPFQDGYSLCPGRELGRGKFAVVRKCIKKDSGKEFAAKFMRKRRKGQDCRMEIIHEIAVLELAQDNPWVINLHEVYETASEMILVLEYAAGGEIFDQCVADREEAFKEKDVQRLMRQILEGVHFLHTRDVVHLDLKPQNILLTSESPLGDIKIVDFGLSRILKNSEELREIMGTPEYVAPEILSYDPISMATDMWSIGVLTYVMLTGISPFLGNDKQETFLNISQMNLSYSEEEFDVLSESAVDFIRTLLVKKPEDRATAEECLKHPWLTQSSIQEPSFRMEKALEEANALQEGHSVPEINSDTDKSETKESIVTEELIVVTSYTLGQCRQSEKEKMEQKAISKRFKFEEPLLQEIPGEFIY
Procedure, shortened: as §1

[4] = biological target: T3, NDR1 (Homo sapiens, UniProt Q15208); conditions: read-out: Tm shift NDR1
T3 construct: purchased in-house (SGC Oxford thermal shift panel)
T3 sequence (Q15208 whole entry): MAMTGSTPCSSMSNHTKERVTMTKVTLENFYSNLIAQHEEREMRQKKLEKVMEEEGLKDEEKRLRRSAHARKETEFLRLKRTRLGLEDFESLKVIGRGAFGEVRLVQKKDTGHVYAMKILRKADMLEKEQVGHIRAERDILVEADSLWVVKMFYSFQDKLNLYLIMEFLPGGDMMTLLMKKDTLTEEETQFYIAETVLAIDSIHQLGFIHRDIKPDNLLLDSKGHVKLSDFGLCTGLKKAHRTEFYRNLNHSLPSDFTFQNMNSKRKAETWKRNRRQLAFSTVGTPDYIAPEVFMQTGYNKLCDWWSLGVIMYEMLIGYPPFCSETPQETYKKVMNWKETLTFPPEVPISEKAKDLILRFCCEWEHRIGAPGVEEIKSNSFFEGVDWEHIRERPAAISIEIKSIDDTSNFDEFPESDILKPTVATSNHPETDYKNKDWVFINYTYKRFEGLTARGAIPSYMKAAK
Procedure, shortened: as §1

[5] = biological target: T4, PLK4 (Homo sapiens, UniProt O00444); conditions: read-out: Tm shift PLK4
T4 sequence (O00444 1-970): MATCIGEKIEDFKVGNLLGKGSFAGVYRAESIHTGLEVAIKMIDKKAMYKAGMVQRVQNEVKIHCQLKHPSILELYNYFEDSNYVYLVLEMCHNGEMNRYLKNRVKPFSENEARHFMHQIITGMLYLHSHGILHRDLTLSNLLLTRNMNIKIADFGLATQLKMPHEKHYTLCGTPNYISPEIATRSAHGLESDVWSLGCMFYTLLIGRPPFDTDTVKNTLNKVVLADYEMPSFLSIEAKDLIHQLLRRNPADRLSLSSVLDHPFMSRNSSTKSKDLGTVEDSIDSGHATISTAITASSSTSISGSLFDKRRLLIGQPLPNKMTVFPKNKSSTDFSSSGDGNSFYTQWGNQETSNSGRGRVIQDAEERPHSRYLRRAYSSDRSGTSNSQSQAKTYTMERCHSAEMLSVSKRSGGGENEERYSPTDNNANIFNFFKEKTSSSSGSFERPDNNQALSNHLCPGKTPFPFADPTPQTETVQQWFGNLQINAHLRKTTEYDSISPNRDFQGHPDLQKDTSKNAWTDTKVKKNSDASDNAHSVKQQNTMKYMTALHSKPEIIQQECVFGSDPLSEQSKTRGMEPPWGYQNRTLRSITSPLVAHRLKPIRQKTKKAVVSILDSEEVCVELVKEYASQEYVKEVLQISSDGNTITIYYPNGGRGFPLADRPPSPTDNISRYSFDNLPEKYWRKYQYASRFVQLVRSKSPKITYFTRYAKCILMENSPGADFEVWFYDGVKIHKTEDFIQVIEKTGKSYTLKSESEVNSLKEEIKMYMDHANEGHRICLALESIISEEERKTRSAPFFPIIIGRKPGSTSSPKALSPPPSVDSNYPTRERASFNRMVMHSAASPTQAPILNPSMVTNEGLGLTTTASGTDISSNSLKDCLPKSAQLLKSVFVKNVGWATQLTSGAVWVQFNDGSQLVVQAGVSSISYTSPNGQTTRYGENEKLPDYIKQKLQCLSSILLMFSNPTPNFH
Procedure, shortened: as §1

[6] = biological target: T5, RSK1-C (Homo sapiens, UniProt Q15418); conditions: read-out: Tm shift RSK1-C
T5 construct: RSK1-C 0.7 4.0 1.6 1.9 1.9 0.3 0.9
T5 sequence (Q15418 418-675 limits assumed): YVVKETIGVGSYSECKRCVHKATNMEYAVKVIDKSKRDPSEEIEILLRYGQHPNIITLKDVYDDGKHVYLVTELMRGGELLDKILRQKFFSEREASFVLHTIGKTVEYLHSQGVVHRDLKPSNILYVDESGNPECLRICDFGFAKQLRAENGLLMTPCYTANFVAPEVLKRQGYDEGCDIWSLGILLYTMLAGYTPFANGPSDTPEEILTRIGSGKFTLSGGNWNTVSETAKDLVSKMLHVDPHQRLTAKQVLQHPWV
Procedure, shortened: as §1

[7] = biological target: T6, eEF2K (Homo sapiens, UniProt O00418); conditions: read-out: Tm shift eEF2K
T6 construct: purchased in-house (SGC Oxford thermal shift panel)
T6 sequence (O00418 1-725): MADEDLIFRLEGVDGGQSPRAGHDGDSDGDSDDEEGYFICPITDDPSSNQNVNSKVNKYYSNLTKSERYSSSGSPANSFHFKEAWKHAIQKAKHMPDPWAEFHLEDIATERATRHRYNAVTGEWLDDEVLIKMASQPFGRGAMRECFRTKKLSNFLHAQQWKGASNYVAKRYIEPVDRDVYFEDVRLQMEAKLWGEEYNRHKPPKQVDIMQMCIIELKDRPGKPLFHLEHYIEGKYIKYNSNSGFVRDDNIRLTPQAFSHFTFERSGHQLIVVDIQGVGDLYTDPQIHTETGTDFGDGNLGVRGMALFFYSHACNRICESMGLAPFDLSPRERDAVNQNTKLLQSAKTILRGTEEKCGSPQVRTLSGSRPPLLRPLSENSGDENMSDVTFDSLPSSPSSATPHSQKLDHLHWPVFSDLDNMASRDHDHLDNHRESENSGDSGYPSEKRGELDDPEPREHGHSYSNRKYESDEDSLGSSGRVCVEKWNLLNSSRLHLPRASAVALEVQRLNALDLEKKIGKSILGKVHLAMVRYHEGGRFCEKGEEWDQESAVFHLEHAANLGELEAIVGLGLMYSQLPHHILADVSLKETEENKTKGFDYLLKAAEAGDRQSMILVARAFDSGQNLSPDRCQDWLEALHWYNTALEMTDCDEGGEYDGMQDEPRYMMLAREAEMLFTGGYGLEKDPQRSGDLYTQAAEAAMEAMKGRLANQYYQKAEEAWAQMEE
Procedure, shortened: as §1

Sequence of AKT3 (Q9Y243 whole entry): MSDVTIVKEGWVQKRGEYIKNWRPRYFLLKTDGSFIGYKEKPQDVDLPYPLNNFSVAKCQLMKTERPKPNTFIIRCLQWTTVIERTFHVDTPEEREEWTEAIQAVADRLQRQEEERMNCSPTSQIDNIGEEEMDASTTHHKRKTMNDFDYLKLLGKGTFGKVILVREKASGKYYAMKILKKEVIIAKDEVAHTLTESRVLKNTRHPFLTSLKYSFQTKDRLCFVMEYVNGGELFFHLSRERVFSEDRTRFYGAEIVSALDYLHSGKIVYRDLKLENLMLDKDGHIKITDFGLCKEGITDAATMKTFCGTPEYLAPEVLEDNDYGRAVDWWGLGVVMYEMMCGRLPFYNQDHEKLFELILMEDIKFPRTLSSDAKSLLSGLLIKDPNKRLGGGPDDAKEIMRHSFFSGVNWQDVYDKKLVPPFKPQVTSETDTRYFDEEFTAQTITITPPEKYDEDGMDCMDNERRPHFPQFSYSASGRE

SMILES	ΔTm at 10 µM ([1]; inhibitor 10 μM) [°C]	ΔTm at 10 µM ([2]; inhibitor 10 μM) [°C]	ΔTm at 10 µM ([3]; inhibitor 10 μM) [°C]	ΔTm at 10 µM ([4]; inhibitor 10 μM) [°C]	ΔTm at 10 µM ([5]; inhibitor 10 μM) [°C]	ΔTm at 10 µM ([6]; inhibitor 10 μM) [°C]	ΔTm at 10 µM ([7]; inhibitor 10 μM) [°C]	ΔTm at 10 µM [1] [°C]	ΔTm at 10 µM [2] [°C]	ΔTm at 10 µM [3] [°C]	ΔTm at 10 µM [4] [°C]	ΔTm at 10 µM [5] [°C]	ΔTm at 10 µM [6] [°C]	ΔTm at 10 µM [7] [°C]
CCOC(=O)c1c(C(C#N)=CN(C)C)c2ccc(Cl)c(Cl)c2n1C (mixture of isomers) [compound 2, (E/Z)-Ethyl 6,7-Dichloro-3-[1-Cyano-2-(Dimethylamino)Vinyl]-1-Methyl-1H-Indole-2-Carboxylate]	-0.2	0.3	-0.2	0.4	0.2	0.3	-0.4	–	–	–	–	–	–	–
NC1=NC(=O)/C(=C2\CCNC(=O)c3[nH]c(Br)cc32)N1 [Hymenialdisine, hymenialdisine, reference compound]	1.3	7.6	14.8	1	3	0.7	-0.1	–	–	–	–	–	–	–
CCOC(=O)c1c(C(C#N)=CN)c2ccc(Cl)c(Cl)c2n1C (mixture of isomers) [KH-CB20, (E/Z)-Ethyl 3-(2-Amino-1-Cyanovinyl)-6,7-Dichloro-1-Methyl-1H-Indole-2-Carboxylate]	–	–	–	–	–	–	–	-0.3	2.2	2.6	0.3	0.2	1.9	-0.1
CCOC(=O)c1c(/C(C#N)=C\N)c2ccc(Cl)c(Cl)c2n1C [KH-CB19, (E)-Ethyl 3-(2-Amino-1-Cyanovinyl)-6,7-Dichloro-1-Methyl-1H-Indole-2-Carboxylate]	–	–	–	–	–	–	–	-0.2	2.2	2.5	0.2	0.7	1.6	-0.1
Cn1c2c(Cl)c(Cl)ccc2c2c(C#N)c[nH]c(=O)c21 [compound 3, 7,8-Dichloro-9-Methyl-1-Oxo-2,9-Dihydro-1H-Pyrido[3,4-b]Indole-4-Carbonitrile]	0.1	2	1.7	0.7	0.5	1.9	0.3	–	–	–	–	–	–	–
